Data reported in BindingDB's records for doi:10.1021/acsmedchemlett.9b00575 (Duke University, 2020).

Key:
D(2) dopamine receptor = D(2) dopamine receptor (Homo sapiens, UniProt P14416); test: Agonist activity at C-terminal RLuc8-fused D2 long receptor (unknown origin) transfected in human HEK293T cells co-expressing N-terminal Venus-tagged beta-arrestin2 assessed as increase in beta-arrestin2 recruitment measured after 5 mins in presence of coelenterazine H by BRET assay
D(1A) dopamine receptor = D(1A) dopamine receptor (Homo sapiens, UniProt P21728); test: Agonist activity at D1R (unknown origin) transfected in human HEK293T cells assessed as increase in cAMP accumulation incubated for 2 hrs by cAMP Glo-sensor assay
Sequence of D(1A) dopamine receptor (P21728 whole entry): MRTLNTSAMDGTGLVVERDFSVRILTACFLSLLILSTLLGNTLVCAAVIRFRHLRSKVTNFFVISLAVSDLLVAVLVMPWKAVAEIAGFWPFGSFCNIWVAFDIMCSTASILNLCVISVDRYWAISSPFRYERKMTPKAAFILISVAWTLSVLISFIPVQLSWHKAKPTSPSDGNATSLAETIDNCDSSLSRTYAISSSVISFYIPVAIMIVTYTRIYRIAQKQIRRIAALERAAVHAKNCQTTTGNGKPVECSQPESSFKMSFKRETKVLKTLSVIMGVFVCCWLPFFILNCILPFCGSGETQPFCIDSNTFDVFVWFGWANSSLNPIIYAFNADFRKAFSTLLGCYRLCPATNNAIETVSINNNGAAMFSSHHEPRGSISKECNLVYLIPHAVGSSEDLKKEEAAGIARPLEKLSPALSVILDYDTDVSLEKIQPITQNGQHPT

Sequence of D(2) dopamine receptor (P14416 whole entry, the tested form may be a part): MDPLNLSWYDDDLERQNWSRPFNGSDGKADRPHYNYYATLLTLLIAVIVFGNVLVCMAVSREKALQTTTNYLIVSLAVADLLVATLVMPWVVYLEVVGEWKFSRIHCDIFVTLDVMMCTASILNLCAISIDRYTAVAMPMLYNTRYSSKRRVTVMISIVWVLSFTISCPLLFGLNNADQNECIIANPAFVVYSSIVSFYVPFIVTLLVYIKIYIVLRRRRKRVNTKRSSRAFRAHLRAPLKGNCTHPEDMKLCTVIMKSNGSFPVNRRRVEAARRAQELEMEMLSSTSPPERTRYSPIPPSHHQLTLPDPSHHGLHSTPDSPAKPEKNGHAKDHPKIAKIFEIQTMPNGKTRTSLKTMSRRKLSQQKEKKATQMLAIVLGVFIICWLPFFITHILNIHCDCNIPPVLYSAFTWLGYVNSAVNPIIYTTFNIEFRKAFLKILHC

In the case of `CC(=O)Oc1c(Br)cc2c(c1OC(C)=O)-c1cccc3c1[C@@H](C2)N(C)CC3`, the EC50 (D(2) dopamine receptor) is reported as 1260 nM.

`CN1CCc2cccc3c2[C@H]1Cc1ccc2c(c1-3)OCO2` showed an EC50 (D(1A) dopamine receptor) of 100 nM.
